Measurements: patent US8952024B2, “Herbicidal pyrimidone derivatives” (E I du Pont de Nemours and Company, priority 2009, dated 2015)

What was measured:
Experiment in all cases: Test C plant response
Format in all cases: in vivo
Details in all cases: Postemergence, scale 0 to 100
kochia (Kochia scoparia) = tested on: kochia (Kochia scoparia)
Procedure, shortened: (§1)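 Efficacy is a visual percent-control score (0 none, 100 complete), judged against controls 14 days after application. Compounds go on in a non-phytotoxic solvent carrier with surfactant. A dash marks a missing result.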

[1] = tested on: green foxtail (Setaria viridis)
Procedure, shortened: as §1

[2] = tested on: winter barley (Hordeum vulgare)
Procedure, shortened: as §1

[3] = tested on: chickweed (common chickweed, Stellaria media)
Procedure, shortened: as §1

wild oat (Avena fatua) = tested on: wild oat (Avena fatua)
Procedure, shortened: as §1

[4] = tested on: bromegrass (downy bromegrass, Bromus tectorum)
Procedure, shortened: as §1

[5] = tested on: canarygrass (Phalaris minor)
Procedure, shortened: as §1

[6] = tested on: windgrass (Apera spica-venti)
Procedure, shortened: as §1

[7] = tested on: spring wheat (Triticum aestivum)
Procedure, shortened: as §1

[8] = tested on: galium (catchweed bedstraw, Galium aparine)
Procedure, shortened: as §1

[9] = tested on: bluegrass (annual bluegrass, Poa annua)
Procedure, shortened: as §1

[10] = tested on: wild mustard (Sinapis arvensis)
Procedure, shortened: as §1

[11] = tested on: Italian ryegrass (Lolium multiflorum)
Procedure, shortened: as §1

[12] = tested on: blackgrass (Alopecurus myosuroides)
Procedure, shortened: as §1

[13] = tested on: field poppy (Papaver rhoeas)
Procedure, shortened: as §1

[14] = tested on: lambsquarters (Chenopodium album)
Procedure, shortened: as §1

[15] = tested on: oilseed rape (Brassica napus)
Procedure, shortened: as §1

[16] = tested on: deadnettle (henbit deadnettle, Lamium amplexicaule)
Procedure, shortened: as §1

[17] = tested on: spring barley (Hordeum vulgare)
Procedure, shortened: as §1

[18] = tested on: buckwheat (wild buckwheat, Polygonum convolvulus)
Procedure, shortened: as §1

[19] = tested on: Russian thistle (Salsola iberica)
Procedure, shortened: as §1

[20] = tested on: winter wheat (Triticum aestivum)
Procedure, shortened: as §1

## Cc1ccc(-n2c(-c3ccccc3)ncc(C(=O)C3=C(O)CCCC3=O)c2=O)cc1 [Compound 8]
Kochia (Kochia scoparia); 31 g ai/ha
  Plant response rating: Kochia: 70
Kochia (Kochia scoparia); 16 g ai/ha
  Plant response rating: Kochia: 65
Kochia (Kochia scoparia); 62 g ai/ha
  Plant response rating: Kochia: 85
Kochia (Kochia scoparia); 125 g ai/ha
  Plant response rating: Kochia: 90
[1]; 31 g ai/ha
  Plant response rating: Foxtail, Green: 95
[1]; 16 g ai/ha
  Plant response rating: Foxtail, Green: 95
[1]; 62 g ai/ha
  Plant response rating: Foxtail, Green: 95
[1]; 125 g ai/ha
  Plant response rating: Foxtail, Green: 98
[2]; 31 g ai/ha
  Plant response rating: Barley, Winter: 20
[2]; 16 g ai/ha
  Plant response rating: Barley, Winter: 0
[2]; 62 g ai/ha
  Plant response rating: Barley, Winter: 20
[2]; 125 g ai/ha
  Plant response rating: Barley, Winter: 40
[3]; 31 g ai/ha
  Plant response rating: Chickweed: 95
[3]; 16 g ai/ha
  Plant response rating: Chickweed: 95
[3]; 62 g ai/ha
  Plant response rating: Chickweed: 95
[3]; 125 g ai/ha
  Plant response rating: Chickweed: 98
Wild oat (Avena fatua); 31 g ai/ha
  Plant response rating: Oat, Wild: 20
Wild oat (Avena fatua); 16 g ai/ha
  Plant response rating: Oat, Wild: 20
Wild oat (Avena fatua); 62 g ai/ha
  Plant response rating: Oat, Wild: 30
Wild oat (Avena fatua); 125 g ai/ha
  Plant response rating: Oat, Wild: 30
[4]; 31 g ai/ha
  Plant response rating: Bromegrass, Downy: 25
[4]; 16 g ai/ha
  Plant response rating: Bromegrass, Downy: 10
[4]; 62 g ai/ha
  Plant response rating: Bromegrass, Downy: 35
[4]; 125 g ai/ha
  Plant response rating: Bromegrass, Downy: 40
[5]; 31 g ai/ha
  Plant response rating: Canarygrass: 5
[5]; 16 g ai/ha
  Plant response rating: Canarygrass: 0
[5]; 62 g ai/ha
  Plant response rating: Canarygrass: 10
[5]; 125 g ai/ha
  Plant response rating: Canarygrass: 10
[6]; 31 g ai/ha
  Plant response rating: Windgrass: 10
[6]; 16 g ai/ha
  Plant response rating: Windgrass: 0
[6]; 62 g ai/ha
  Plant response rating: Windgrass: 20
[6]; 125 g ai/ha
  Plant response rating: Windgrass: 60
[7]; 31 g ai/ha
  Plant response rating: Wheat, Spring: 5
[7]; 16 g ai/ha
  Plant response rating: Wheat, Spring: 5
[7]; 62 g ai/ha
  Plant response rating: Wheat, Spring: 5
[7]; 125 g ai/ha
  Plant response rating: Wheat, Spring: 20
[8]; 31 g ai/ha
  Plant response rating: Galium: 75
[8]; 16 g ai/ha
  Plant response rating: Galium: 50
[8]; 62 g ai/ha
  Plant response rating: Galium: 90
[8]; 125 g ai/ha
  Plant response rating: Galium: 90
[9]; 31 g ai/ha
  Plant response rating: Bluegrass: 25
[9]; 16 g ai/ha
  Plant response rating: Bluegrass: 5
[9]; 62 g ai/ha
  Plant response rating: Bluegrass: 50
[9]; 125 g ai/ha
  Plant response rating: Bluegrass: 75
[10]; 31 g ai/ha
  Plant response rating: Mustard, Wild: 95
[10]; 62 g ai/ha
  Plant response rating: Mustard, Wild: 98
[10]; 125 g ai/ha
  Plant response rating: Mustard, Wild: 98
[11]; 31 g ai/ha
  Plant response rating: Ryegrass, Italian: 0
[11]; 16 g ai/ha
  Plant response rating: Ryegrass, Italian: 0
[11]; 62 g ai/ha
  Plant response rating: Ryegrass, Italian: 20
[11]; 125 g ai/ha
  Plant response rating: Ryegrass, Italian: 35
[12]; 31 g ai/ha
  Plant response rating: Blackgrass: 30
[12]; 16 g ai/ha
  Plant response rating: Blackgrass: 20
[12]; 62 g ai/ha
  Plant response rating: Blackgrass: 35
[12]; 125 g ai/ha
  Plant response rating: Blackgrass: 35
[13]; 31 g ai/ha
  Plant response rating: Field Poppy: 20
[13]; 16 g ai/ha
  Plant response rating: Field Poppy: 0
[13]; 62 g ai/ha
  Plant response rating: Field Poppy: 40
[13]; 125 g ai/ha
  Plant response rating: Field Poppy: 60
[14]; 31 g ai/ha
  Plant response rating: Lambsquarters: 98
[14]; 16 g ai/ha
  Plant response rating: Lambsquarters: 98
[14]; 62 g ai/ha
  Plant response rating: Lambsquarters: 98
[14]; 125 g ai/ha
  Plant response rating: Lambsquarters: 100
[15]; 31 g ai/ha
  Plant response rating: Oilseed Rape: 90
[15]; 16 g ai/ha
  Plant response rating: Oilseed Rape: 80
[15]; 62 g ai/ha
  Plant response rating: Oilseed Rape: 98
[15]; 125 g ai/ha
  Plant response rating: Oilseed Rape: 100
[16]; 31 g ai/ha
  Plant response rating: Deadnettle: 95
[16]; 16 g ai/ha
  Plant response rating: Deadnettle: 85
[16]; 62 g ai/ha
  Plant response rating: Deadnettle: 98
[16]; 125 g ai/ha
  Plant response rating: Deadnettle: 100
[17]; 31 g ai/ha
  Plant response rating: Barley, Spring: 10
[17]; 16 g ai/ha
  Plant response rating: Barley, Spring: 0
[17]; 62 g ai/ha
  Plant response rating: Barley, Spring: 20
[17]; 125 g ai/ha
  Plant response rating: Barley, Spring: 30
[18]; 31 g ai/ha
  Plant response rating: Buckwheat, Wild: 65
[18]; 16 g ai/ha
  Plant response rating: Buckwheat, Wild: 65
[18]; 62 g ai/ha
  Plant response rating: Buckwheat, Wild: 65
[18]; 125 g ai/ha
  Plant response rating: Buckwheat, Wild: 65
[19]; 31 g ai/ha
  Plant response rating: Russian Thistle: 90
[19]; 16 g ai/ha
  Plant response rating: Russian Thistle: 90
[19]; 62 g ai/ha
  Plant response rating: Russian Thistle: 95
[19]; 125 g ai/ha
  Plant response rating: Russian Thistle: 95
[20]; 31 g ai/ha
  Plant response rating: Wheat, Winter: 10
[20]; 16 g ai/ha
  Plant response rating: Wheat, Winter: 10
[20]; 62 g ai/ha
  Plant response rating: Wheat, Winter: 25
[20]; 125 g ai/ha
  Plant response rating: Wheat, Winter: 30
